# Results taken from patent publication US5242945A, “Tetronic and thiotetronic acid derivatives as phospholipase A2 inhibitors” (American Home Products Corporation, priority 1991, dated 1993).
# Where two headings read alike, the source gives them in different places.
# Experiments:
# [1] = system: lipoxygenase (LTB4 or 5HETE synthesis); assay: inhibition of LTB4 and 5-HETE synthesis by rat glycogen-elicited polymorphonuclear leukocytes; format: cell-based, rat (female Wistar); settings: Leukocyte, rat PMN; for inhibition at 10 µM: + with * denotes potentiation
# Description: This is especially true with respect to 5,12-diHETE, which is also denoted as LTB4 [see Ford-Hitchinson, J. Roy. Soc. Med., 74, 831 (1981)]. Compounds which inhibit the PLA2 -mediated release of arachidonic acid thereby effectively prevent the oxidation of arachidonic acid to the various leukotriene products via the lipoxygenase cascade. Accordingly, the specificity of action of PLA2 inhibitors can be determined by the activity of test compounds in this assay, which measures the ability of compounds to inhibit the synthesis of LTB4 and 5-HETE by rat glycogen-elicited polymorphonuclear leukocytes (PMN) in the presence of exogenous substrate.
# (§1) Rat polymorphonuclear leukocytes (PMNs) are obtained from female Wistar rats (150-200 g) which receive an injection of 6% glycogen (10 ml i.p.). Rats are sacrificed 18-24 hours post injection by CO2 asphyxiation and the elicited cells are harvested by peritoneal lavage using physiological saline (0.9% NaCl). The exudate is centrifuged at 400 xg for 10 minutes. The supernatant fluid is discarded and the cell pellet is resuspended to a concentration of 2.0×10^7 cells/mL in HBSS containing Ca^++ and Mg^++ and 10 μM L-cysteine.
# (§2) To 1 mL aliquots of cell suspension, test drugs or vehicle are added, then preincubated at 37° C. for 10 minutes. A23187 (1 μM), [^3 H]-AA (3.0 μCi/mL) and unlabeled AA (1 μM) are then added and the samples are further incubated for 10 minutes. The reaction is terminated by centrifugation and pelleting cells. Supernatants are then analyzed by HPLC analysis on a 15 cm×4.6 mm ID supelcosil LC-18 (Supelco)(3M) column, using a two solvent system at a flow rate of 1.4 mL total flow as follows:
# Injections: 140 μL of each supernatant is injected directly onto column and ^3 H arachidonic acid metabolites are monitored using an on-line radioactivity detector (Ramona, IN/US, Fairfield, N.J.).
# Co-chromatography with standard [^3 H] leukotriene B4 (LTB4) in medium of stimulated PMN exposed to drug is compared to that found in medium of stimulated cells exposed to no drug, generating percent inhibition.
# Results are expressed as percent inhibition at a given compound dose or as an IC50 value.
# [2] = system: cyclooxygenase (PGE2 or TxB2 synthesis); assay: inhibition of synthesis of cyclooxygenase products PGE2 and TxB2 by rat polymorphonuclear leukocytes; format: cell-based, rat (female Wistar); settings: Leukocyte, rat PMN; for inhibition at 10 µM: + with * denotes potentiation
# Procedure: as §1, §2
# In this assay, the procedure of Example 58 is carried out as described. However, in order to determine cyclooxygenase activity, the samples are co-chromatographed with authentic reference [^3 H]-TxB2 or [^3 H]-PGE2.
# The results are calculated as in Example 58 and presented below: […]
# [3] = system: platelet-activating factor (PAF) biosynthesis in human polymorphonuclear neutrophils (PMN); assay: platelet-activating factor biosynthesis in human polymorphonuclear neutrophils (in vitro phospholipase A2 assay); format: cell-based; settings: Homo sapiens, Polymorphonuclear neutrophil; in this assay (PAF or LTB4 readout not stated)
# Procedure: The compounds of the invention are tested in an in vitro phospholipase A2 assay to determine the ability of the compounds to inhibit the biosynthesis of platelet-activating factor and LTB4 in purified human neutrophils.
# A leukocyte enriched blood sample obtained from a healthy donor is procured by leukophoresis using a Haemonetics model 30+ blood processor (Biological Specialties, Inc., Lansdale, Penn.). The top "platelet-rich" layer is removed after a low speed spin (35 xg, 15 min, 25° C.) of the sample. The remaining cell suspension is centrifuged (400 xg, 10 min, 25° C.) to sediment the remaining cells. The supernatant is discarded and the cell pellet resuspended in 120 ml HBSS (without Ca^++ /Mg^++). The cell suspension is subjected to ficoll-hypaque sedimentation (Histopaque 1077, 400 xg, 30 min, 25° C.). Contaminating erythrocytes are lysed by hypotonic shock (1 min). The cells are then washed once with 40 ml of HBSS and resuspended with HBSS (without Ca^++ /Mg^++) to a concentration of 2.5×10^7 cells/ml for further use. Greater than 95% purity is obtained, as assessed by microscopic examination.
# One ml of human PMN (2.5×10^7 cells/ml) is incubated with vehicle or drugs (10 μl) for 10 minutes at 30° C. After preincubation, an equal volume of HBSS (1 ml) containing 2.4 mM CaCl2, 6 μM calcium ionophore A23187 and 50 μCi [^3 H]-acetate is then incubated at 30° C. for 15 minutes. An aliquot (100 μl) of the reaction mixture is taken out and mixed with 900 μl of 15% ethanol. LTB4 is extracted by using solid phase extraction on reverse phase C18 columns to remove excess [^3 H]-acetate and PAD. The C18 column is prewashed once with 2 ml of ethanol and water. The sample aliquot is acidified with 0.1N HCl to pH 3 before applying to the column. The column is then washed with 2 ml of water followed by 2 ml of 15% ethanol and 2 ml of petroleum ether to remove excess labeled acetate. The sample is eluted with 2 ml of ethyl acetate. The collected samples are dried with nitrogen and resuspended in 0.5 ml RIA buffer. The quantity of LTB4 in the sample is obtained from RIA determination. For PAF determination, the reaction is terminated by addition of 5 ml chloroform:methanol:acetic acid (2:1:0.04, v/v/v). [^3 H]-PAF is obtained by Bligh and Dyer extraction. The chloroform phase is removed and dried under nitrogen. The residue is redissolved in 75 μl of chloroform:methanol (80:20, v/v). [^3 H]-PAF is resolved from other phospholipids by TLC on RPC18 plates with a solvent system of chloroform:methanol:water (2:3:1, v/v/v) and is quantitated using a Berthold automated TLC linear analyzer.
# Data presented are the mean +/- s.d. of the values relative to control A23187 stimulated cells for each experiment assayed in triplicate. Percent inhibition when used is calculated as:
# % Inhibition=100-[(x.div.Control)×100].
# Dose response analysis is performed by non-linear regression analysis for curve fitting and IC50 determination.
# [4] = system: purified PLA2, from the diamond back cotton mouth snake (A. piscivorus piscivorus); assay: in vivo PLA2 murine paw edema assay; set-up: species or system A. piscivorus piscivorus PLA2 in CD-1 mice; settings: p.o.; at +10 min
# Procedure: The ability of the compounds of the invention to inhibit paw edema induced by the exogenous administration of PLA2 is measured in the in vivo PLA2 murine paw edema assay.
# Non-fasted, male CD-1 mice (8 weeks old; 31-36 grams) are placed in plastic boxes in groups of six. The right hind paw volume is measured using mercury plethysmography (zero time). Compounds are dosed orally (0.5 mL of 0.5% Tween-80) 1 or 3 hours prior to PLA2 injection or intravenously (0.2 mL in 0.3% dimethylsulfoxide/saline) 3 minutes prior to PLA2 injection. A solution of purified PLA2, from the diamond back cotton mouth snake (A. piscivorus piscivorus) is prepared in saline at a concentration of 6 μg/mL. Fifty (50) μL (0.3 μg) of this PLA2 solution is injected subcutaneously into the right hind paw with a plastic 1 mL plastic syringe (27 gauge, 1" needle). Paw volume of the injected paw is measured again at 10 minutes, 30 minutes and 60 minutes after PLA2 injection. Animals are euthanized with CO2 at the completion of the study.
# The paw edema is calculated by subtracting the zero time volume from the volume recorded at each time period. Mean paw edema for each treatment group is then calculated and expressed as (μL±S.E.). Drug effects are expressed as a percent change from control (vehicle) values. Statistical significance is determined by a one-way analysis of variance with LSD comparison to control (p<0.05). ED50 's are determined using […].
# [5] = system: purified PLA2, from the diamond back cotton mouth snake (A. piscivorus piscivorus); assay: in vivo PLA2 murine paw edema assay; set-up: species or system A. piscivorus piscivorus PLA2 in CD-1 mice
# [6] = molecular target: T1, human platelet PLA2 (Homo sapiens, UniProt P14555); assay: in vitro isolated phospholipase A2 assay, human platelet PLA2; format: biochemical; settings: at 10 μM; + values given without explanation; read-out: % Inhibition HP (human platelet)
# T1 construct: platelet acid extract PLA2; from tissue; host or cells: human platelets, semipurified acid extract
# T1 sequence (P14555 21-144): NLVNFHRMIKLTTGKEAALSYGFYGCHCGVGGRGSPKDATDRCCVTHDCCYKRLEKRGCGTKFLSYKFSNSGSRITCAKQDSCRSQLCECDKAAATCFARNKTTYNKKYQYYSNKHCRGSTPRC
# Procedure: (§3) The compounds of the invention are tested in an in vitro isolated phospholipase A2 assay to determine the ability of the test compounds to inhibit the release of arachidonic acid from an arachidonic acid-containing substrate by the action of phospholipase A2 enzyme from human and non-human sources.
# (§4) Into a 15 mL polypropylene tube are added the following:
# (§5) ^3 H-AA E. coli substrate^1
# (§6) Tris-HCl (0.5 M) pH 7.5^3
# (§7) PLA2 25 Volume yielding 12%
# (§8) 100 hydrolysis in 10 min.
# (§9) *pre-incubate at room temperature 30 min prior to substrate addition.
# (§10) ^6 Two human PLA2 enzymes are used: a) Semipurified human
# (§11) platelet acid extract PLA2 (in 10 mM sodium acetate buffer, pH 4.5).
# (§12) Remove protein precipitate by centrifugation at about 2200 rpm for 10
# (§13) minutes. b) Purified human synovial fluid.
# (§14) Incubate the 100 μL reaction mixture for 10 minutes at 37° C. in a shaking water bath. The reaction is terminated by the addition of 2 mL tetrahydrofuran, followed by vortexing. NH2 columns (100 μg/mL--Analytichem International) are conditioned with 0.5 mL tetrahydrofuran followed by 0.5 mL tetrahydrofuran/water (2 mL:0.1 mL, v/v).
# (§15) The sample is loaded onto the columns and slowly drawn through them. The hydrolyzed arachidonic acid retained in the columns is eluted therefrom with 1 mL tetrahydrofuran/glacial acetic acid (2%). The arachidonic acid is transferred to scintillation vials and quantitated by β-counting analysis. A "total counts" sample is prepared by pipetting 25 μL ^3 H-arachidonate E. coli directly into a scintillation vial to which is added 1 mL tetrahydrofuran. 10 mL aquasol (scintillation cocktail) is added to all samples.
# [7] = molecular target: T2, human synovial fluid PLA2 (Homo sapiens, UniProt P14555); assay: in vitro isolated phospholipase A2 assay, human synovial fluid PLA2; format: biochemical; settings: for inhibition at 10 µM: + values given without explanation, read-out: % Inhibition HSF (human synovial fluid)
# T2 construct: Purified human synovial fluid; from tissue; host or cells: human synovial fluid
# T2 sequence (P14555 21-144): T1 sequence (P14555 21-144)
# Procedure: as §3, §4, §5, §6, §7, §8, §9, §10, §11, §12, §13, §14, §15
compound,measurement,setting,value
"CCc1cccc2c3c([nH]c12)C(CC)(CC(=O)O)OCC3 (stereo not drawn) [etodolac, reference compound]",inhibition at 0.5 µM,[1]; at 0.5 μM,21%
same,inhibition at 0.5 µM,[2]; at 0.5 μM,100%
"CC(=O)O[C@H]1C[C@@H]2[C@@]3(C)CCCC(C)(C)[C@@H]3CC[C@@]2(C)[C@@H]2CC=C(C=O)[C@H](C=O)[C@@]12C [scalaradial, reference compound]",IC50,[3],1 µM
"COc1cccc2c1cc([N+](=O)[O-])c1c(C(=O)O)cc3c(c12)OCO3 [Aristolochic Acid, reference compound]",ED50 at +10 min.,[4],Not Active
"COc1ccc2cc([C@H](C)C(=O)O)ccc2c1 [Naproxen, reference compound]",ED50 at +10 min.,[4],18 mg/kg
"C[C@@H]1C[C@H]2[C@@H]3CCC4=CC(=O)C=C[C@]4(C)[C@@]3(F)[C@@H](O)C[C@]2(C)[C@@]1(O)C(=O)CO [Dexamethasone, reference compound]",ED50 at +10 min.,"[5]; p.o. 3 hr, at +10 min",10 mg/kg
"CN1CCC(=C2c3ccccc3C=Cc3ccccc32)CC1 [Cyproheptadine, reference compound]",ED50 at +10 min.,[4],3.1 mg/kg
"CCCCCC/C=C\CCCCCCCC(=O)C1=C(O)COC1=O [Example 26, 4-Hydroxy-3-((Z)-1-oxo-9-hexadecenyl)-2(5H)-furanone]",inhibition at 10 µM,[1]; read-out: % Inhibition 5-HETE,85%
same,inhibition at 10 µM,[1]; read-out: % Inhibition LTB4,82%
same,inhibition at 10 µM,[2]; read-out: % Inhibition PGE2,6%
same,inhibition at 10 µM,[2]; read-out: % Inhibition TxB2,1%
same,inhibition at 10 µM,[6],24.4%
same,% Change in Edema 30 min,[5]; 1 mg/kg i.p.,-62%
same,% Change in Edema 60 min,[5]; 1 mg/kg i.p.,-38%
same,% Change in Edema 30 min,[5]; 10 mg/kg i.p.,-67%
same,% Change in Edema 60 min,[5]; 10 mg/kg i.p.,-43%
same,inhibition at 10 µM,[7],1.7%
Luffarrellolide [reference compound],ED50 at +10 min.,[4],Not Active
"O=C(/C=C/c1ccccc1)C1=C(O)COC1=O [Example 8, (E)-4-Hydroxy-3-(3-(phenyl)-1-oxo-2-propenyl)-2(5H)-furanone]",inhibition at 10 µM,[1]; read-out: % Inhibition LTB4,10%
same,inhibition at 10 µM,[2]; read-out: % Inhibition TxB2,1%
same,inhibition at 10 µM,[6],3%
same,IC50,"[7]; Table IV, read-out: IC50 HSF (human synovial fluid)",10.5 µM
same,inhibition at 10 µM,[7],77%
"CCC/C=C\CCCCCCCCC(=O)C1=C(O)COC1=O [Example 23, 4-Hydroxy-3-((Z)-1-oxo-10-tetradecenyl)-2(5H)-furanone]",inhibition at 10 µM,[1]; read-out: % Inhibition 5-HETE,93%
same,inhibition at 10 µM,[1]; read-out: % Inhibition LTB4,83%
same,inhibition at 10 µM,[2]; read-out: % Inhibition PGE2,1%
same,inhibition at 10 µM,[2]; read-out: % Inhibition TxB2,8%
same,inhibition at 10 µM,[6],52.7%
same,% Change in Edema 30 min,[5]; 1 mg/kg i.p.,-41%
same,% Change in Edema 60 min,[5]; 1 mg/kg i.p.,-20%
same,% Change in Edema 30 min,[5]; 10 mg/kg i.p.,-48%
same,% Change in Edema 60 min,[5]; 10 mg/kg i.p.,-28%
same,inhibition at 10 µM,[7],44%
